Converted amounts (≈) assume the structure as drawn.
Tested on: THP1-Dual™ cells (IRF-Lucia luciferase reporter)
Test: THP1-Dual™ cell reporter assay
Format: cell-based, human
Settings: ADC: drug linker conjugated to targeted mAb, 48 h; some values average of multiple experiments
Procedure: Potency of compounds and ADCs was evaluated using the THP1-Dual™ cells (Invivogen PN: thpd-nfis [also referred to as THP1 dual reporter cells]), which contain an IRF-Lucia luciferase reporter. Cells were cultured in RPMI-1640 (Gibco) with 10% heat-inactivated fetal bovine serum, Pen-Strep (100 U/mL-100 […], Gibco), HEPES (10 mM, Gibco)), sodium pyruvate (1 mM, Gibco), MEM non-essential amino acids (1×, Gibco), GlutaMAX (1×, Gibco), and beta-mercaptoethanol (55 μM, Gibco). Cells were plated in a 96-well flat bottom tissue culture-treated clear polystyrene plate (Corning Costar #3596) at ˜100,000 cells per well in 200 μL with the indicated concentration of the compound or ADC. The supernatant was harvested at 24 hours (compounds) or 48 hours (ADC) post plating for the reporter assay, or as indicated. To measure Lucia reporter signal, 10 µL of the supernatant was combined with 40 µL of QUANTI-Luc™ Luminescence assay reagent (Invivogen PN: rep-qlc1) in a 96-well clear flat bottom tissue culture-treated black polystyrene plate (Corning Costar #3603) and read on a Perkin Elmer Envision plate reader.

Q: With CCn1nc(C)cc1C(=O)Nc1nc2cc(C(N)=O)cc(OC)c2n1C/C=C/Cn1c(NC(=O)c2cc(C)nn2CC)nc2cc(C(N)=O)cc(OCCCN(C)C(=O)[C@H](CC(=O)O)NC(=O)CCN3C(=O)C=CC3=O)c21 [Compound 17, (S,E)-4-((3-((5-carbamoyl-1-(4-(5-carbamoyl-2-(1-ethyl-3-methyl-1H-pyrazole-5-carboxamido)-7-methoxy-1H-benzo[d]imidazol-1-yl)but-2-en-1-yl)-2-(1-ethyl-3-methyl1H-pyrazole-5-carboxamido)-1H-benzo[d]imidazol-7-yl)oxy)propyl)(methyl)amino)-3-(3-(2,5-dioxo-2,5-dihydro-1H-pyrrol-1-yl)propanamido)-4-oxobutanoic acid] as the molecule, how does the “EC50, Lucia reporter signal” value read?
A: 2.2 ng/mL (≈ 0.00208 µM)

Q: CCn1nc(C)cc1C(=O)Nc1nc2cc(C(N)=O)cc(OC)c2n1C/C=C/Cn1c(NC(=O)c2cc(C)nn2CC)nc2cc(C(N)=O)cc(OCCCN(C)C(=O)[C@H](CO)NC(=O)CCN3C(=O)C=CC3=O)c21 [Compound 24, (S,E)-1-(4-(5-carbamoyl-2-(1-ethyl-3-methyl-1H-pyrazole-5-carboxamido)-7-methoxy-1H-benzo[d]imidazol-1-yl)but-2-en-1-yl)-7-(3-(2-(3-(2,5-dioxo-2,5-dihydro-1H-pyrrol-1-yl)propanamido)-3-hydroxy-N-methylpropanamido)propoxy)-2-(1-ethyl-3-methyl-1H-pyrazole-5-carboxamido)-1H-benzo[d]imidazole-5-carboxamide] was tested. Which “EC50, Lucia reporter signal” value did it give?
A: 2.1 ng/mL (≈ 0.00203 µM)

Q: How did the “EC50, Lucia reporter signal” value turn out when CCn1nc(C)cc1C(=O)Nc1nc2cc(S(N)(=O)=O)ccc2n1C/C=C/Cn1c(NC(=O)c2cc(C)nn2CC)nc2cc(C(N)=O)cc(OCCCN(C)C(=O)CCN3C(=O)C=CC3=O)c21 [Compound 25, (E)-7-(3-(3-(2,5-dioxo-2,5-dihydro-1H-pyrrol-1-yl)-N-methylpropanamido)propoxy)-2-(1-ethyl-3-methyl-1H-pyrazole-5-carboxamido)-1-(4-(2-(1-ethyl-3-methyl-1H-pyrazole-5-carboxamido)-5-sulfamoyl-1H-benzo[d]imidazol-1-yl)but-2-en-1-yl)-1H-benzo[d]imidazole-5-carboxamide] was run?
A: 307 ng/mL (≈ 0.323 µM)

Q: CCn1nc(C)cc1C(=O)Nc1nc2cc(C(N)=O)cc(OC)c2n1C/C=C/Cn1c(NC(=O)c2cc(C)nn2CC)nc2cc(C(N)=O)cc(OCCC3CN(C(=O)CCN4C(=O)C=CC4=O)C3)c21 [Compound 26, (E)-1-(4-(5-carbamoyl-2-(1-ethyl-3-methyl-1H-pyrazole-5-carboxamido)-7-methoxy-1H-benzo[d]imidazol-1-yl)but-2-en-1-yl)-7-(2-(1-(3-(2,5-dioxo-2,5-dihydro-1H-pyrrol-1-yl)propanoyl)azetidin-3-yl)ethoxy)-2-(1-ethyl-3-methyl-1H-pyrazole-5-carboxamido)-1H-benzo[d]imidazole-5-carboxamide] was tested. Which “EC50, Lucia reporter signal” value did it give?
A: 14.4 ng/mL (≈ 0.015 µM)

Q: With CCn1nc(C)cc1C(=O)Nc1nc2cc(C(N)=O)cc(OC)c2n1C/C=C/Cn1c(NC(=O)c2cc(C)nn2CC)nc2cc(C(N)=O)cc(OCCCOC3CN(C(=O)CCN4C(=O)C=CC4=O)C3)c21 [Compound 27, (E)-1-(4-(5-carbamoyl-2-(1-ethyl-3-methyl-1H-pyrazole-5-carboxamido)-7-methoxy-1H-benzo[d]imidazol-1-yl)but-2-en-1-yl)-7-(3-((1-(3-(2,5-dioxo-2,5-dihydro-1H-pyrrol-1-yl)propanoyl)azetidin-3-yl)oxy)propoxy)-2-(1-ethyl-3-methyl-1H-pyrazole-5-carboxamido)-1H-benzo[d]imidazole-5-carboxamide] as the molecule, how does the “EC50, Lucia reporter signal” value read?
A: 10.4 ng/mL (≈ 0.0105 µM)

Q: How did the “EC50, Lucia reporter signal” value turn out when CCn1nc(C)cc1C(=O)Nc1nc2cc(C(=O)OC)cc(OC)c2n1C/C=C/Cn1c(NC(=O)c2cc(C)nn2CC)nc2cc(C(=O)OC)cc(OCCCN(C)C(=O)CCN3C(=O)C=CC3=O)c21 [compound 66, methyl (E)-7-(3-(3-(2,5-dioxo-2,5-dihydro-1H-pyrrol-1-yl)-N-methylpropanamido)propoxy)-2-(1-ethyl-3-methyl-1H-pyrazole-5-carboxamido)-1-(4-(2-(1-ethyl-3-methyl-1H-pyrazole-5-carboxamido)-7-methoxy-5-(methoxycarbonyl)-1H-benzo[d]imidazol-1-yl)but-2-en-1-yl)-1H-benzo[d]imidazole-5-carboxylate] was run?
A: >10,000 ng/mL

Q: With CCn1nc(C)cc1C(=O)Nc1nc2cc(C(=O)OC)cc(OC)c2n1C/C=C/Cn1c(NC(=O)c2cc(C)nn2CC)nc2cc(C(=O)OC)cc(OCCCN(C)C(=O)OCc3ccc(O[C@@H]4O[C@H](C(=O)O)[C@@H](O)[C@H](O)[C@H]4O)cc3NC(=O)CCNC(=O)CCN3C(=O)C=CC3=O)c21 [compound 67] as the molecule, how does the “EC50, Lucia reporter signal” value read?
A: >10,000 ng/mL

Q: For CCn1nc(C)cc1C(=O)Nc1nc2cc(C(=O)O)cc(OC)c2n1C/C=C/Cn1c(NC(=O)c2cc(C)nn2CC)nc2cc(C(=O)O)cc(OCCCN(C)C(=O)CCN3C(=O)C=CC3=O)c21 [compound 68, (E)-1-(4-(5-carboxy-2-(1-ethyl-3-methyl-1H-pyrazole-5-carboxamido)-7-methoxy-1H-benzo[d]imidazol-1-yl)but-2-en-1-yl)-7-(3-(3-(2,5-dioxo-2,5-dihydro-1H-pyrrol-1-yl)-N-methylpropanamido)propoxy)-2-(1-ethyl-3-methyl-1H-pyrazole-5-carboxamido)-1H-benzo[d]imidazole-5-carboxylic acid], which “EC50, Lucia reporter signal” value is on record?
A: >10,000 ng/mL

Q: How did the “EC50, Lucia reporter signal” value turn out when CCn1nc(C)cc1C(=O)Nc1nc2cc(C(=O)O)cc(OC)c2n1C/C=C/Cn1c(NC(=O)c2cc(C)nn2CC)nc2cc(C(=O)O)cc(OCCCN(C)C(=O)OCc3ccc(O[C@@H]4O[C@H](C(=O)O)[C@@H](O)[C@H](O)[C@H]4O)cc3NC(=O)CCNC(=O)CCN3C(=O)C=CC3=O)c21 [compound 69] was run?
A: >10,000 ng/mL

Q: Which “EC50, Lucia reporter signal” value does the source give for CCn1nc(C)cc1C(=O)Nc1nc2cc(C(N)=O)cc(OC)c2n1C/C=C/Cn1c(NC(=O)c2cccnn2)nc2cc(C(N)=O)cc(OCCCN(C)C(=O)CCN3C(=O)C=CC3=O)c21 [compound 96] here?
A: >10,000 ng/mL

Q: With CCn1nc(C)cc1C(=O)Nc1nc2cc(C(N)=O)cc(OC)c2n1C/C=C/Cn1c(NC(=O)c2ccnnc2)nc2cc(C(N)=O)cc(OCCCN(C)C(=O)CCN3C(=O)C=CC3=O)c21 [compound 98] as the molecule, how does the “EC50, Lucia reporter signal” value read?
A: >10,000 ng/mL

Q: CCn1nc(C)cc1C(=O)Nc1nc2cc(C(N)=O)cc(OC)c2n1C/C=C/Cn1c(NC(=O)c2ncccn2)nc2cc(C(N)=O)cc(OCCCN(C)C(=O)CCN3C(=O)C=CC3=O)c21 [compound 101] was tested. Which “EC50, Lucia reporter signal” value did it give?
A: >10,000 ng/mL

Q: Which “EC50, Lucia reporter signal” value does the source give for CCn1cc(C(=O)Nc2nc3cc(C(N)=O)cc(OCCCN(C)C(=O)CCN4C(=O)C=CC4=O)c3n2C/C=C/Cn2c(NC(=O)c3cc(C)nn3CC)nc3cc(C(N)=O)cc(OC)c32)c(C)n1 [compound 102] here?
A: >10,000 ng/mL

Q: For CCn1cc(C)nc1C(=O)Nc1nc2cc(C(N)=O)cc(OCCCN(C)C(=O)CCN3C(=O)C=CC3=O)c2n1C/C=C/Cn1c(NC(=O)c2cc(C)nn2CC)nc2cc(C(N)=O)cc(OC)c21 [compound 103], which “EC50, Lucia reporter signal” value is on record?
A: >10,000 ng/mL

Q: How did the “EC50, Lucia reporter signal” value turn out when CCc1cc(C(=O)Nc2nc3cc(C(N)=O)cc(OCCCN(C)C(=O)CCN4C(=O)C=CC4=O)c3n2C/C=C/Cn2c(NC(=O)c3cc(C)nn3CC)nc3cc(C(N)=O)cc(OC)c32)n(C)n1 [compound 104] was run?
A: >10,000 ng/mL

Q: Which “EC50, Lucia reporter signal” value does the source give for CCn1nc(C)cc1C(=O)Nc1nc2cc(C(N)=O)cc(OC)c2n1C/C=C/Cn1c(NC(=O)c2cc(C)nn2C)nc2cc(C(N)=O)cc(OCCCN(C)C(=O)CCN3C(=O)C=CC3=O)c21 [compound 105] here?
A: 52.5 ng/mL (≈ 0.0564 µM)

Same assay, conditions: Homo sapiens, THP1-Dual; small molecules, 24 h; >10,000 nM = minimal activity up to 10 μM; some values average of multiple experiments; read-out: EC50, Lucia reporter signal

Q: COc1cc(C(N)=O)cc2nc(NC(=O)c3ccnnc3)n(C/C=C/Cn3c(NC(=O)c4cccnn4)nc4cc(C(N)=O)cc(O)c43)c12 [Compound 42] was tested. Which EC50 did it give?
A: > 10000 nM

Q: With CCn1nc(C)cc1C(=O)Nc1nc2cc(C(N)=O)cc(OC)c2n1C/C=C/Cn1c(NC(=O)c2cc(C)nn2CC)nc2cc(C(N)=O)cc(OCCCN(C)C(=O)CCN3C(=O)C=CC3=O)c21 [compound 12, (E)-1-(4-(5-carbamoyl-2-(1-ethyl-3-methyl-1H-pyrazole-5-carboxamido)-7-methoxy-1H-benzo[d]imidazol-1-yl)but-2-en-1-yl)-7-(3-(3-(2,5-dioxo-2,5-dihydro-1H-pyrrol-1-yl)-N-methylpropanamido)propoxy)-2-(1-ethyl-3-methyl-1H-pyrazole-5-carboxamido)-1H-benzo[d]imidazole-5-carboxamide] as the molecule, how does the EC50 read?
A: 37 nM

Q: How did the EC50 turn out when CCn1nc(C)cc1C(=O)Nc1nc2cc(C(N)=O)cc(OC)c2n1C/C=C/Cn1c(NC(=O)c2cc(C)nn2CC)nc2cc(C(N)=O)cc(OCCCN(C)C(=O)[C@H](CC(=O)OC)NC(=O)CCN3C(=O)CC(SC[C@H](N)C(=O)O)C3=O)c21 (stereo partly shown) [compound 72] was run?
A: 275 nM

Same assay, conditions: drug linker conjugated to targeted mAb, 48 h

Q: With CCn1nc(C)cc1C(=O)Nc1nc2cc(C(N)=O)cc(OC)c2n1C/C=C/Cn1c(NC(=O)c2cc(C)nn2CC)nc2cc(C(N)=O)cc(OCCCN(C)C(=O)OCc3ccc(O[C@@H]4O[C@H](C(=O)O)[C@@H](O)[C@H](O)[C@H]4O)cc3NC(=O)CCNC(=O)CCN3C(=O)C=CC3=O)c21 [compound 13] as the molecule, how does the “relative potency / activity of ADC, Lucia reporter” value read?
A: more potent when conjugated to a targeted mAb via a cleavable glucuronide linker (13) than the similar compound 1 conjugate (11)

Same assay, conditions: free drug, 24 h (48 h elsewhere in the source)

Q: CCn1nc(C)cc1C(=O)Nc1nc2cc(C(N)=O)cc(O)c2n1C/C=C/Cn1c(NC(=O)c2cc(C)nn2CC)nc2cc(C(N)=O)cc(OCCCNC)c21 [Compound 15b] was tested. Which “relative potency of free drug, Lucia reporter” value did it give?
A: more potent than 12a

Same assay, conditions: small molecules, 24 h; >10,000 nM = minimal activity up to 10 μM; some values average of multiple experiments; read-out: EC50, Lucia reporter signal

Q: For CCn1nc(C)cc1C(=O)Nc1nc2cc(C(N)=O)cc(O)c2n1C/C=C/Cn1c(NC(=O)c2cc(C)nn2CC)nc2cc(C(N)=O)cc(OCCCNC)c21 [Compound 15b], which EC50 is on record?
A: 5.8 nM
